Experimental data from paper PMC8512560, “Design, Synthesis, and Antipoliferative Activities of Novel Substituted Imidazole-Thione Linked Benzotriazole Derivatives” (Molecules, 2021).
Where “and” joins values, the source holds several entries; their conditions need not be identical. Identical values can stand only once. Like-named read-outs stand apart in the source and are kept apart here.

Tests used:
[1] = test system: HL-60 human leukemia cancer cell line; experiment: MTT viability assay, HL-60; format: cell-based; conditions: mean ± SD of three independent experiments, read-out: Antiproliferative Activities IC50, HL-60
Method: (§1) All the human tumour cell lines MCF-7, HL-60, HCT-116, and HUVEC were cultured in Dulbecco’s Modified Eagle’s Medium (DMEM) with 10% fetal bovine serum, 2 mM L-glutamine and 100 µg/mL penicillin/streptomycin. Cells were maintained at 37 °C in 5% CO2 in a humidified incubator. All cells were sub-cultured three times/week by trypsinization using TrypLE Express (1X).
(§2) The Benzotriazole compounds were evaluated for antiproliferative effect using the MTT viability assay of various cancer cell lines (MCF-7, HCT-116 and HL-60) and the normal human umbilical vein endothelial cell line (HUVEC) to calculate the relative IC50 values for each compound. Cells were seeded in triplicate in 96-well plates at a density of 10 × 10^3 cells/mL in a total volume of 200 µL per well. 0.1% of DMSO was used as a vehicle control. After this time, they were treated with 2 µL test compound which had been pre-prepared as stock solutions in ethanol to furnish the concentration range of study, 10 nM to 100 µM, and re-incubated for a further 72 h. The culture medium was then removed, and the cells washed with 100 µL phosphate buffered saline (PBS) and 50 µL MTT added, to reach a final concentration of 1 mg/mL MTT added. Cells were incubated for 2 h in darkness at 37 °C. At this point solubilisation was begun through the addition of […] DMSO and the cells maintained at room temperature in darkness for 20 min to ensure thorough colour diffusion before reading the absorbance. Plates were incubated for 72 h at 37 °C + 5% CO2. The MTT (5 mg/mL in PBS) was added and incubated for another 4 h, and the optical density was detected with a microplate reader at 570 nm. Results were expressed as percentage viability relative to vehicle control (100%). Dose response curves were plotted and IC50 values (concentration of drug resulting in 50% reduction in cell survival) were obtained using the commercial software package Prism (GraphPad Software, Inc., La Jolla, CA, USA). All the experiments were repeated in at least three independent experiments.

[2] = test system: HCT-116 human colon cancer cell line; experiment: MTT viability assay, HCT-116; format: cell-based; conditions: mean ± SD of three independent experiments, read-out: Antiproliferative Activities IC50, HCT-116
Method: as §1, §2

[3] = test system: MCF-7 human breast cancer cell line; experiment: MTT viability assay, MCF-7; format: cell-based; conditions: mean ± SD of three independent experiments, read-out: Antiproliferative Activities IC50, MCF-7
Method: as §1, §2

[4] = test system: HUVEC human umbilical vein endothelial cell line; experiment: MTT viability assay, normal HUVEC cells; format: cell-based; conditions: 72 h, mean ± SD of three independent experiments
Method: as §1, §2

[5] = test system: MCF-7, HL-60 and HCT-116 cancer cell lines; experiment: MTT viability assay, values pooled over the cancer cell lines; format: cell-based, human; conditions: for IC50: Homo sapiens, MTT; for Fold more active than methyl-containing derivative BI2 (antiproliferative): relative to BI2, cell line not specified
Method: as §1, §2

bovine brain tubulin = experiment: Tubulin polymerization assay (turbidimetric, kit BK006); format: biochemical; conditions: read-out: Anti-Tubulin Activity IC50 ± SD (inhibition of tubulin polymerization)
Method: The assembly of purified bovine tubulin was monitored using a kit, BK006, purchased from Cytoskeleton Inc., (Denver, CO, USA). The assay was carried out in accordance with the manufacturer’s instructions using the standard assay conditions. Briefly, purified ([…]) in a buffer consisting of 80 mM PIPES (pH 6.9), 0.5 mM EGTA, 2 mM MgCl2, 1 mM GTP and 10% glycerol was incubated at 37 °C in the presence of either vehicle (2% (v/v) ddH2O), CA-4, benzotriazole compounds. Light was scattered proportionally to the concentration of polymerized microtubules in the assay. Therefore, the tubulin assembly was monitored turbidimetrically at 340 nm in a Spectramax 340 PC spectrophotometer (Molecular Devices, Sunnyvale, CA, USA). The concentration that inhibits tubulin polymerization by 50% (IC50) was determined using area under the curve (AUC). The AUC of the untreated controls were considered as 100% polymerization. The IC50 value for each compound was computed using GraphPad Prism Software.

[6] = test system: colchicine binding site of tubulin; experiment: Colchicine site competitive binding assay ([3H]colchicine); conditions: tubulin and colchicine at 1 and 5 µM
Method: The affinity of Benzotriazole compounds to colchicine binding site was determined using a Colchicine Site Competitive Assay kit CytoDYNAMIX Screen15 (Cytoskeleton, Inc., Denver, CO, USA) using the standard protocol of the manufacturer to determine Ki values (μM). Biotin-labelled tubulin ([…]) and the test compounds (positive control colchicine, negative control vinblastine, G-1, fluorescent G-1, or 2-ME) in a 96-well plate (final volume: 100 μL). After incubating for 2 h at 37 °C with gentle shaking, streptavidin-labelled yttrium SPA beads (80 μg in 20 μL reaction buffer, PerkinElmer, Waltham, MA) were added to each well and incubated for 30 min at 4 °C. The plates were then read on a scintillation counter (Packard Instrument, Topcount Microplate Reader) and the percentage of inhibition was calculated.

[7] = MCF-7, HL-60 and HCT-116, read-out: IC50 values range over the three cancer cell lines
[8] = HL-60 and HCT-116 only, read-out: IC50 values range versus HL-60 and HCT-116 cells

| Compound | IC50 ([1]; Homo sapiens, HL-60, 72 h) [µM] | IC50 ([2]; Homo sapiens, HCT-116, 72 h) [µM] | IC50 ([3]; Homo sapiens, MCF7, 72 h) [µM] | melting point [°C] | IC50 [4] [µM] | IC50 [5, 7] [µM] | IC50 (bovine brain tubulin) | Colchicine Binding % ± SD (inhibition of [3H]colchicine binding), 1 µM Drug [6] [%] | Colchicine Binding % ± SD (inhibition of [3H]colchicine binding), 5 µM Drug [6] [%] | Fold more active than methyl-containing derivative BI2 (antiproliferative) [5] [fold] | IC50 ([1]; 72 h) [µM] | IC50 ([2]; 72 h) [µM] | IC50 ([3]; 72 h) [µM] | IC50 [5, 8] [µM] |
| --- | --- | --- | --- | --- | --- | --- | --- | --- | --- | --- | --- | --- | --- | --- |
| S=c1[nH]c(-n2nnc3ccccc32)cn1-c1ccccc1 [BI1, 4-(1H-Benzo[d][1,2,3]Triazol-1-yl)-1-Phenyl-1H-Imidazole-2(3H)-Thione] | 5.23 ± 0.36 | 17.5 ± 1.13 | 6.4 ± 0.18 | 175 to 177 | 63 ± 3.02 |  |  |  |  |  |  |  |  |  |
| Cc1ccc(-n2cc(-n3nnc4ccccc43)[nH]c2=S)cc1 [BI2, 4-(1H-Benzo[d][1,2,3]Triazol-1-yl)-1-(4-Methylphenyl)-1H-Imidazole-2(3H)-Thione] | 37.1 ± 2.54 | 14.8 ± 0.95 | 12.5 ± 0.36 | 178 to 180 | 12.2 ± 0.58 | > 10 |  |  |  |  |  |  |  |  |
| CCc1ccc(-n2cc(-n3nnc4ccccc43)[nH]c2=S)cc1 [BI3, 4-(1H-Benzo[d][1,2,3]Triazol-1-yl)-1-(4-Ethylphenyl)-1H-Imidazole-2(3H)-Thione] | 3.91 ± 0.27 | 2.75 ± 0.18 | 10.6 ± 0.31 | 150 to 152 | > 100 |  | 0.928 ± 0.04 µM | 65.38 ± 2 | 86.85 ± 2 | 3.8 |  |  |  |  |
| COc1ccc(-n2cc(-n3nnc4ccccc43)[nH]c2=S)cc1 [BI4, 4-(1H-Benzo[d][1,2,3]Triazol-1-yl)-1-(4-Methoxyphenyl)-1H-Imidazole-2(3H)-Thione] | 22.1 ± 1.52 |  | 2.29 ± 0.07 | 175 to 177 | > 100 |  |  |  |  | 2.5 |  |  |  |  |
| Oc1ccc(-n2cc(-n3nnc4ccccc43)[nH]c2=S)cc1 [BI5, 4-(1H-Benzo[d][1,2,3]Triazol-1-yl)-1-(4-Hydroxyphenyl)-1H-Imidazole-2(3H)-Thione] | 1.1 | 2.1 | 4.4 | 267 to 269 | 4.74 ± 0.23 | 1.51 to 15.5 | 0.49 µM and 0.497 µM | 61.78 ± 2 | 81.34 ± 2 |  | 1.18 ± 0.08 | 2.15 ± 0.14 | 4.45 ± 0.13 |  |
| S=c1[nH]c(-n2nnc3ccccc32)cn1-c1ccc(Cl)cc1 [BI6, 4-(1H-Benzo[d][1,2,3]Triazol-1-yl)-1-(4-Chlorophenyl)-1H-Imidazole-2(3H)-Thione] | 3.28 ± 0.22 | 1.51 ± 0.12 | 7.29 ± 0.21 | 187 to 189 | 27.4 ± 1.31 | 1.51 to 7.29 | 0.928 ± 0.03 µM | 63.23 ± 2 | 77.63 ± 2 |  |  |  |  | 1.51 to 7.38 |
| S=c1[nH]c(-n2nnc3ccccc32)cn1-c1ccccc1Cl [BI7, 4-(1H-Benzo[d][1,2,3]Triazol-1-yl)-1-(2-Chlorophenyl)-1H-Imidazole-2(3H)-Thione] | 3.42 ± 0.23 | 7.38 ± 0.48 | 15.5 ± 0.44 | 180 to 182 | 17.3 ± 0.35 |  | 0.84 ± 0.02 µM | 61.18 ± 2 | 79.95 ± 2 |  |  |  |  | 1.51 to 7.38 |
| S=c1[nH]c(-n2nnc3ccccc32)cn1-c1cccc(Cl)c1 [BI8, 4-(1H-Benzo[d][1,2,3]Triazol-1-yl)-1-(3-Chlorophenyl)-1H-Imidazole-2(3H)-Thione] | 5.12 ± 0.35 | 2.1 ± 0.14 | 2.66 ± 0.08 | 120 to 122 | 39.8 ± 1.91 | 1.51 to 15.5 | 3.05 µM | 59.74± 2 | 82.13 ± 2 |  |  |  |  | 1.51 to 7.38 |
| Fc1ccccc1N1CC(n2nnc3ccccc32)=NC1=S [BI10, 4-(1H-Benzo[d][1,2,3]Triazol-1-yl)-1-(2-Florophenyl)-1H-Imidazole-2(3H)-Thione] |  |  |  | 196 to 198 |  |  |  |  |  |  |  |  |  |  |
| S=c1[nH]c(-n2nnc3ccccc32)cn1-c1ccc(Br)cc1 [BI11, 4-(1H-Benzo[d][1,2,3]Triazol-1-yl)-1-(4-Bromophenyl)-1H-Imidazole-2(3H)-Thione] | 11.5 ± 0.11 | 17.4 ± 1.12 | 38.2 ± 1.09 | 267 to 269 | 47.8 ± 2.29 | 11.5 to 38.2 |  |  |  |  |  |  |  |  |
| NS(=O)(=O)c1ccc(-n2cc(-n3nnc4ccccc43)[nH]c2=S)cc1 [BI12, 4-(4-(1H-Benzo[d][1,2,3]Triazol-1-yl)-2-Thioxo-2,3-Dihydro-1H-Imidazol-1-yl)Benzenesulfonamide] | 0.9 ± 0.06 | 7.83 ± 0.5 | 6.1 ± 0.75 | 217 to 219 | 25.1 ± 1.2 |  | 0.784 ± 0.02 µM | 64.67 ± 2 | 80.26 ± 2 |  |  |  |  |  |
